# What was measured:
# COL1A1 = assay: Red-COL1A1 mCherry reporter assay (fluorescence from reporter downstream of the endogenous COL1A1 promoter); type: cell-based, human; conditions: increasing doses, immortalized tertBJ fibroblasts, FIG. 3A
# Excerpt: In this example, RNA interference (“RNAi”) screening was used to identify genes that appear to inhibit collagen synthesis. Immortalized human skin fibroblasts (BJhTERT, available from ATCC, Manassas, Va. were modified to place an mCherry reporter gene downstream of the endogenous promoter for COL1A1 using […] (TALENs). COL1A1 is well known for its role in the synthesis of Type I collagen, sometimes referred to as collagen I, which is a fibrillar collagen that accounts for over 90% of the collagen found in the human body. The reporter gene codes for the mCherry RFP, which can be quantitated using known fluorescent protein detection techniques. Transforming growth factor beta (“TGFβ”), a well-known COL1A1 activating cytokine, was used in a fluorescence-activated cell sorting (“FACS”) technique to select for a cell line with low endogenous expression and high levels of inducible expression of the mCherry gene. […]
# Automated image acquisition and analysis was used to quantitate the fluorescent protein. […] Images were analyzed using METAXPRESS brand high-content image analysis software from Molecular Devices. The percentage of cells with positive nuclear-localizing mCherry signal above background was determined using the “Translocation-Enhanced” module. […]
# This increased fluorescence directly correlates to increased collagen synthesis. […]
# [1] = system: immortalized tertBJ fibroblasts cells; assay: Cell count by DAPI staining of nuclei (toxicity); type: cell-based, human; conditions: increasing concentrations, FIG. 3B
# Protocol: This increased fluorescence directly correlates to increased collagen synthesis. The results of the positive control (TGFβ), the vehicle control for the TGFβ (Media Control), and the vehicle control for the alpha-ergocryptine (DMSO control) are also illustrated in FIG. 3A. […] Cell count was determined by staining the nuclei with 4′,6-diamidino-2-phenylindole (DAPI), which is a fluorescent stain that binds strongly to adenine-thymine rich regions in DNA. DAPI staining is a well-known technique for determining cell count in fluorescence microscopy.
smiles,measurement,setting,value
CC(C)C[C@H]1C(=O)N2CCC[C@H]2[C@]2(O)O[C@](NC(=O)[C@@H]3C=C4c5cccc6[nH]cc(c56)C[C@H]4N(C)C3)(C(C)C)C(=O)N12 [alpha-ergocryptine],COL1A1 expression (fluorescence of mCherry reporter),COL1A1,increased COL1A1 expression
same,toxicity as determined by cell counts (DAPI),[1],not toxic

# From patent US20220146497A1, “Method of Modulating a Fibrotic Condition” (The Procter & Gamble Company, priority 2019, published 2022)
